The source made the active and inactive calls. The rule behind the calls is not given here.
Key:
[1] = Toxicity in NOD SCID mouse xenografted with human THP-1 cells assessed as change in lung tissue at 40 to 80 mg/kg, ip once daily after 10 days of tumor inoculation treated for 14 days relative to control; assay type: organism-based; conditions: in vivo, 336 h, dose 40-80 mg/kg, time 14 day
[2] = Toxicity in NOD SCID mouse xenografted with human HL-60 cells assessed as change in spleen tissue at 80 mg/kg, ip once daily after 15 days of tumor inoculation treated for 12 days; assay type: organism-based; conditions: in vivo, 288 h, time 12 day
[3] = Toxicity in NOD SCID mouse assessed as change in kidney tissue at 25 mg/kg, ip administered for 7 consecutive days by Hematoxylin-eosin (HE) staining based assay; assay type: organism-based; conditions: in vivo, 168 h, time 7 day
HL-60 [4] = experiment: In vivo antitumor activity against human HL-60 cells xenografted in female NOD SCID mouse assessed as reduction in tumor weight at 80 mg/kg, ip once daily after 15 days of tumor inoculation treated for 12 days; assay type: functional, organism-based; conditions: time 12.0 day
[5] = molecular target: Voltage-gated inwardly rectifying potassium channel KCNH2 (Homo sapiens, UniProt Q12809); experiment: Inhibition of hERG; assay type: toxicity
Chain of Voltage-gated inwardly rectifying potassium channel KCNH2 (Q12809 whole entry): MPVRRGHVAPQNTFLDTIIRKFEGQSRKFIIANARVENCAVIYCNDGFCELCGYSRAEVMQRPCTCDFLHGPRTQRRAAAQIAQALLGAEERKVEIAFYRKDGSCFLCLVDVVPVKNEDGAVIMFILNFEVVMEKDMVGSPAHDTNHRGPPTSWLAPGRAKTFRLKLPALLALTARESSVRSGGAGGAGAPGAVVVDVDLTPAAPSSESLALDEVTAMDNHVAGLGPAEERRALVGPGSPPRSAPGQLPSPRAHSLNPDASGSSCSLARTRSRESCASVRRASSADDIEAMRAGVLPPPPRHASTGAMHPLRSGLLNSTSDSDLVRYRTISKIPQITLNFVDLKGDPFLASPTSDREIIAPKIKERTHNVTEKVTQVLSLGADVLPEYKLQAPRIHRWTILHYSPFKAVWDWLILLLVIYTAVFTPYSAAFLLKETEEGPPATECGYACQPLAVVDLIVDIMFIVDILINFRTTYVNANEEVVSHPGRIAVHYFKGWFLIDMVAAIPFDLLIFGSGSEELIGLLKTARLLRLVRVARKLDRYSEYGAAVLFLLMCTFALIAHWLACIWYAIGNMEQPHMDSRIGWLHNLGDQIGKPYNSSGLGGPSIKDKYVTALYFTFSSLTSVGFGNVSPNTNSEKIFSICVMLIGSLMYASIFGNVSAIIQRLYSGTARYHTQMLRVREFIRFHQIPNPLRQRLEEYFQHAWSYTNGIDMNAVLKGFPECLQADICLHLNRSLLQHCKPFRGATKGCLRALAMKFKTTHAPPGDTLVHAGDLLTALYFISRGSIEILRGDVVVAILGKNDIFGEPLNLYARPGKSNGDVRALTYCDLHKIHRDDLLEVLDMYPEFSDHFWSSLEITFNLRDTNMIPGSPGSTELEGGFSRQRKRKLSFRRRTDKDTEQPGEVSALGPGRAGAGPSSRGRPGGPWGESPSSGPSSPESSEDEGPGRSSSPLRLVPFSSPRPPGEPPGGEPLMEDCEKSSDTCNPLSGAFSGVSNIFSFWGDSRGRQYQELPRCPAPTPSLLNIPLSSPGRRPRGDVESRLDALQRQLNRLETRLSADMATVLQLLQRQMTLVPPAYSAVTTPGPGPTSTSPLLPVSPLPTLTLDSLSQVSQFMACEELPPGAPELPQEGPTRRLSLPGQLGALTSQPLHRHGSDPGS

[6] = Cytotoxicity against rat H9c2 cells assessed as cell viability measured after 72 hrs by MTT assay; assay type: toxicity, cell-based
[7] = Half life in Sprague-Dawley rat at 20 mg/kg, ip measured upto 24 hrs by LC-MS/MS analysis; assay type: ADME, organism-based; conditions: in vivo
[8] = MRT (0 to infinity) in Sprague-Dawley rat at 5 mg/kg, iv measured upto 24 hrs by LC-MS/MS analysis; assay type: ADME, organism-based; conditions: in vivo
[9] = Toxicity in NOD SCID mouse xenografted with human THP-1 cells assessed as change in heart tissue at 40 to 80 mg/kg, ip once daily after 10 days of tumor inoculation treated for 14 days relative to control; assay type: organism-based; conditions: in vivo, 336 h, dose 40-80 mg/kg, time 14 day
[10] = Cytotoxicity against human AC16 cells assessed as change in intracellular calcium level at 20 uM measured after 24 hrs by Fluo-4 AM based flow cytometry; assay type: toxicity, cell-based; conditions: ac16 [human hybrid]
[11] = Toxicity in NOD SCID mouse xenografted with human THP-1 cells assessed as change in body weight at 40 to 80 mg/kg, ip once daily after 10 days of tumor inoculation treated for 14 days relative to control; assay type: organism-based; conditions: in vivo, 336 h, dose 40-80 mg/kg, time 14 day
[12] = molecular target: Apoptosis regulator Bcl-2 (Homo sapiens, UniProt P10415); experiment: Binding affinity to Bcl-2 in human THP-1 cells assessed as dissociation of Bim from Bcl-2 at 20 uM measured after 24 hrs by Co-immunoprecipitation (Co-IP) assay; assay type: cell-based
Chain of Apoptosis regulator Bcl-2 (P10415 whole entry): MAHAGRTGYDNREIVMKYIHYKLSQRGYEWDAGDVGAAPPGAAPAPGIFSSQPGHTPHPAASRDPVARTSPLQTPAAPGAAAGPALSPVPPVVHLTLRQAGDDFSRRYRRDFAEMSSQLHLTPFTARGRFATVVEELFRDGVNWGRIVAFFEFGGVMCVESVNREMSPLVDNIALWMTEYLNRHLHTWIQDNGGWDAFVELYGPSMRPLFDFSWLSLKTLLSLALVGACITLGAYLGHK

[13] = AUC (0 to infinity) in Sprague-Dawley rat at 20 mg/kg, ip measured upto 24 hrs by LC-MS/MS analysis; assay type: ADME, organism-based; conditions: in vivo
[14] = Tmax in Sprague-Dawley rat at 20 mg/kg, ip measured upto 24 hrs by LC-MS/MS analysis; assay type: ADME, organism-based; conditions: in vivo
[15] = Toxicity in NOD SCID mouse xenografted with human HL-60 cells assessed as change in heart tissue at 80 mg/kg, ip once daily after 15 days of tumor inoculation treated for 12 days; assay type: organism-based; conditions: in vivo, 288 h, time 12 day
[16] = Cmax in Sprague-Dawley rat at 20 mg/kg, ip measured upto 24 hrs by LC-MS/MS analysis; assay type: ADME, organism-based; conditions: in vivo
[17] = Toxicity in NOD SCID mouse xenografted with human HL-60 cells assessed as change in lung tissue at 80 mg/kg, ip once daily after 15 days of tumor inoculation treated for 12 days; assay type: organism-based; conditions: in vivo, 288 h, time 12 day
HL-60 [18] = experiment: In vivo antitumor activity against human HL-60 cells xenografted in female NOD SCID mouse assessed as tumor growth inhibition at 40 mg/kg, ip once daily after 15 days of tumor inoculation treated for 12 days relative to control; assay type: functional; conditions: read-out: TGI
[19] = MRT (0 to infinity) in Sprague-Dawley rat at 20 mg/kg, ip measured upto 24 hrs by LC-MS/MS analysis; assay type: ADME, organism-based; conditions: in vivo
[20] = Half life in Sprague-Dawley rat at 5 mg/kg, iv measured upto 24 hrs by LC-MS/MS analysis; assay type: ADME, organism-based; conditions: in vivo
[21] = MRT (0 to t) in Sprague-Dawley rat at 20 mg/kg, ip measured upto 24 hrs by LC-MS/MS analysis; assay type: ADME, organism-based; conditions: in vivo
[22] = Toxicity in NOD SCID mouse assessed as change in spleen tissue at 25 mg/kg, ip administered for 7 consecutive days by Hematoxylin-eosin (HE) staining based assay; assay type: organism-based; conditions: in vivo, 168 h, time 7 day
THP-1 = experiment: In vivo antitumor activity against human THP-1 cells xenografted in female NOD SCID mouse assessed as tumor growth inhibition at 40 mg/kg, ip once daily after 10 days of tumor inoculation treated for 14 days relative to control; assay type: functional; conditions: THP-1, 336 h, time 14 day, read-out: TGI
[23] = Toxicity in NOD SCID mouse xenografted with human THP-1 cells assessed as change in liver tissue at 40 to 80 mg/kg, ip once daily after 10 days of tumor inoculation treated for 14 days relative to control; assay type: organism-based; conditions: in vivo, 336 h, dose 40-80 mg/kg, time 14 day

half-life [7]: 4.1 h
MRT inf [8]: 1.3 h
Activity [12]: inactive
AUC(0-inf) [13]: 55800 ng·h/mL
Tmax [14]: 5.33 h
Cmax [16]: 6240 ng/mL
MRT inf [19]: 7.03 h
half-life [20]: 4.9 h
MRT last at 24 h [21]: 6.51 h
Compound: Cc1cc(OCCCc2c(C(=O)O)n(CCN3CCOCC3)c3c(-c4ccccc4Cn4cc(CCN(CCN5CCOCC5)S(=O)(=O)c5ccc(F)cc5)c5ccccc54)cccc23)cc(C)c1Cl
Activity [1]: Non-Toxic
Activity [2]: Non-Toxic
Activity [3]: Non-Toxic
Activity (HL-60 [4]): Active
IC50 [5]: > 50 µM
IC50 at 72 h [6]: 17.9 µM
Activity [9]: Non-Toxic
Activity [10]: Non-Toxic
Activity [11]: Non-Toxic
Activity [15]: Non-Toxic
Activity [17]: Non-Toxic
inhibition in vivo at 40 mg/kg (HL-60 [18]): 46.1%
Activity [22]: Non-Toxic
inhibition in vivo at 40 mg/kg (THP-1): 40.2%
Activity [23]: Non-Toxic
